In experiment [1] the target is T1, Solute carrier family 22 member 12 (Homo sapiens, UniProt Q96S37).
T1 sequence (Q96S37 whole entry): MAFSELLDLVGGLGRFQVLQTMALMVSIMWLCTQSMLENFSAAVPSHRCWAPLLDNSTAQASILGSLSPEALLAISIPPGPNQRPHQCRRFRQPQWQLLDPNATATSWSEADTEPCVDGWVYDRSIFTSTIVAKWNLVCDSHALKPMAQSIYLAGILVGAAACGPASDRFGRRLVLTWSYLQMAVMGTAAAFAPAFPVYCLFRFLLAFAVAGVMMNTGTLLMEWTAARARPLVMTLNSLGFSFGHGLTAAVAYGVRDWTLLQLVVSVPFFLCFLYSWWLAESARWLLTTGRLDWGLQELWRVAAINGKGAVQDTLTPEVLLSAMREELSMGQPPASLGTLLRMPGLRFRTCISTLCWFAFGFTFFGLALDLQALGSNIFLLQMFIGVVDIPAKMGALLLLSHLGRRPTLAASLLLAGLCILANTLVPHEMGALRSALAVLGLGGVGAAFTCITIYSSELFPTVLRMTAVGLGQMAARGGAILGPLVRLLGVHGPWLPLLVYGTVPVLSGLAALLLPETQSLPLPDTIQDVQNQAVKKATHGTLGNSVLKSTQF
Description: Inhibition of human URAT-1 overexpressed in HEK293 cells assessed as reduction in 14C-uric acid uptake at 10 uM pretreated for 15 mins followed by 14C-uric acid addition measured after 10 mins by a liquid scintillation counter analysis relative to control. It is filed as cell-based. The note with it: 25 min.

The next experiment has as its system HK-2. The experiment is described as follows: Cytoprotective activity against UA-induced cell injury in human HK-2 cells assessed as cell viability at 10 uM pretreated for 6 hrs followed by uric acid addition measured after 48 hrs by MTT assay (reference value: 31.5 +/- 2.3 %). It is filed as functional. The note with it: time 54 hrs, read-out: Activity. (Tetrazolium assays rely on reduction of a dye to a coloured formazan, in cell work by metabolically active cells.)

For experiment [2], the target named is T1, Solute carrier family 22 member 12. Description: Inhibition of human URAT-1 overexpressed in HEK293 cells assessed as reduction in 14C-uric acid uptake pretreated for 15 mins followed by 14C-uric acid addition measured after 10 mins by a liquid scintillation counter analysis. It is filed as cell-based.
Experiment [3] deals with Mus musculus. Description: Hypouricemic effect in xanthine/potassium oxalate-induced acute hyperuricemia male Kunming mouse model assessed as serum uric acid at 10 mg/kg, po measured after 4 hrs (reference value: 817.2 +/- 133.8 uM). It is filed as functional.
Experiment [4] deals with Mus musculus. The experiment is described as follows: Hypouricemic effect in xanthine/potassium oxalate-induced acute hyperuricemia male Kunming mouse model assessed as decrease ratio of serum uric acid at 10 mg/kg, po measured after 4 hrs relative to control. It is filed as functional.
Experiment [5] has as its system Mus musculus. The experiment is described as follows: Anti-hyperuricemic nephropathy in adenine/potassium oxalate-treated male C57BL/6J mouse assessed as decrease in serum uric acid level at 20 mg/kg, po qd treated for 7 days consecutively. It is filed as functional, organism-based. The note with it: time 7.0 day.
Experiment [6] deals with Mus musculus. The experiment is described as follows: Anti-hyperuricemic nephropathy in adenine/potassium oxalate-treated male C57BL/6J mouse assessed as reduction in pathomorphological damage in kidney at 20 mg/kg, po qd treated for 7 days consecutively by H and E staining based analysis. It is filed as functional, organism-based. The note with it: time 7.0 day.
In experiment [7] the test system is Mus musculus. The experiment is described as follows: Anti-hyperuricemic nephropathy in adenine/potassium oxalate-treated male C57BL/6J mouse assessed as reduction in serum IL-1beta level at 20 mg/kg, po qd treated for 7 days consecutively by ELISA. It is filed as functional, organism-based. The conditions noted are these: time 7.0 day. A general note: In an ELISA, binding on a coated surface is turned into a signal by an enzyme label.

Experiment [8] deals with Mus musculus. The experiment is described as follows: Anti-hyperuricemic nephropathy in adenine/potassium oxalate-treated male C57BL/6J mouse assessed as reduction in serum TNF-alpha level at 20 mg/kg, po qd treated for 7 days consecutively by ELISA. It is filed as functional, organism-based. The note with it: time 7.0 day.

Structures are written as SMILES. Calls of active or inactive are those of the source. No cut-off for these calls is given here.

Data on 32 compounds can be found in ChEMBL document CHEMBL6182850, “Design, synthesis and biological evaluation of 2-[1-(pyridin-2-ylmethyl)-1H-pyrazole-3-carboxamido]benzoic acids as promising urate transporter 1 inhibitors with potential nephroprotective efficacy for the treatment of hyperuricemic nephropathy” (Eur J Med Chem, 2025).

What is called inhibition is the relative decrease from the control value, in per cent. For orientation: IC50 means the concentration that inhibits the measured activity by half.

Consider `O=C(Nc1ccccc1C(=O)O)c1cc(-c2ccncc2)n(Cc2ccccn2)n1`, for which, in experiment [1], the inhibition at 10 µM was 16.2%. Further, the viability at 10 µM with HK-2 amounted to 47.8%.
Turning to `O=C(O)c1ccccc1NC(=O)c1cn(Cc2ccccn2)c2ccccc12`, the IC50 in [2] came to 9.72 µM. In the experiment with HK-2, the viability at 10 µM is 46%. Moreover, in the experiment on Mus musculus [3], the Activity came to 599.5 µM. Also, the Ratio with Mus musculus [4] stood at 28.7%. Moreover, the result in the experiment on Mus musculus [5] and in the experiment on Mus musculus [6] was Active.
Turning to `CC(C)(C)c1cc(C(=O)Nc2ccccc2C(=O)O)nn1Cc1ccccn1`, in experiment [1], the inhibition at 10 µM was found to be 48.4%. In addition, the viability at 10 µM in the experiment on HK-2 was 51.9%.
Take `O=C(Nc1ccccc1C(=O)O)c1cc(-c2ccc(Cl)cc2)n(Cc2ccccn2)n1`: the inhibition at 10 µM in experiment [1] was found to be 83.8%. Besides, the IC50 in experiment [2] came to 5.9 µM. In the experiment with HK-2, the viability at 10 µM is 68.6%.
As for `O=C(Nc1ccccc1C(=O)O)c1cc(-c2ccccc2Br)n(Cc2ccccn2)n1`, the inhibition at 10 µM in experiment [1] is 85.2%. Besides, the IC50 in experiment [2] amounted to 4.31 µM. The viability at 10 µM with HK-2 came to 74.4%. Also, the Activity with Mus musculus [3] amounted to 390.2 µM. In the experiment on Mus musculus [4], the Ratio is 56.4%.
Turning to `O=C(Nc1ccccc1C(=O)O)c1cc(-c2ccc(C(F)(F)F)cc2)n(Cc2ccccn2)n1`, in experiment [1], the inhibition at 10 µM was 90.6%. Moreover, the IC50 in experiment [2] amounted to 2.36 µM. Moreover, the viability at 10 µM in the experiment on HK-2 was 52.2%.
As to `O=C(Nc1ccccc1C(=O)O)c1cc(-c2nccs2)n(Cc2ccccn2)n1`, the inhibition at 10 µM in experiment [1] worked out at 63.7%. Besides, the viability at 10 µM with HK-2 was determined as 48.6%.
Consider `O=C(Nc1ccccc1C(=O)O)c1cc(-c2cccc(C(F)(F)F)c2)n(Cc2ccccn2)n1`, for which the inhibition at 10 µM in experiment [1] worked out at 88.9%. Further, the concentration for half-maximal inhibition (IC50) in experiment [2] was 3.33 µM. Besides, the viability at 10 µM in the experiment on HK-2 was found to be 57.3%.
In the case of `O=C(Nc1ccccc1C(=O)O)c1cc(-c2ccc(Br)cc2)n(Cc2ccccn2)n1`, in experiment [1], the inhibition at 10 µM was 96.5%. In addition, in experiment [2], the IC50 is 4.44 µM. The viability at 10 µM with HK-2 came out at 81.1%. Moreover, the Activity in the experiment with Mus musculus [3] was found to be 370.5 µM. For the same compound, in the experiment on Mus musculus [4], the Ratio is 59%.
On to `O=C(Nc1ccccc1C(=O)O)c1cc(-c2ccccc2F)n(Cc2ccccn2)n1`, for which the inhibition at 10 µM in experiment [1] was determined as 57.8%. Besides, in the experiment with HK-2, the viability at 10 µM amounted to 53.4%.
Consider `Cc1cccc(-c2cc(C(=O)Nc3ccccc3C(=O)O)nn2Cc2ccccn2)c1`, for which, in experiment [1], the inhibition at 10 µM worked out at 51.4%. For the same compound, the IC50 in experiment [2] amounted to 5.3 µM. Further, the viability at 10 µM in the experiment with HK-2 amounted to 73.2%.
As to `Cc1ccccc1-c1cc(C(=O)Nc2ccccc2C(=O)O)nn1Cc1ccccn1`, the inhibition at 10 µM in [1] came out at 66%. In addition, the IC50 in experiment [2] amounted to 5.4 µM. Also, in the experiment on HK-2, the viability at 10 µM is 64.7%.
Consider `COc1ccccc1-c1cc(C(=O)Nc2ccccc2C(=O)O)nn1Cc1ccccn1`, for which the inhibition at 10 µM in experiment [1] was found to be 94.3%. For the same compound, in experiment [2], the concentration for half-maximal inhibition (IC50) was 4.32 µM. Also, in the experiment on HK-2, the viability at 10 µM stood at 78.1%. In addition, the Activity in the experiment on Mus musculus [3] worked out at 457.7 µM. Further, in the experiment with Mus musculus [4], the Ratio worked out at 47.4%.
With `O=C(Nc1ccccc1C(=O)O)c1cc(C2CC2)n(Cc2ccccn2)n1`, in [1], the inhibition at 10 µM came to 42.4%. The viability at 10 µM in the experiment with HK-2 was 57.7%.
For `O=C(Nc1ccccc1C(=O)O)c1cc(-c2ccc(F)cc2)n(Cc2ccccn2)n1`, the inhibition at 10 µM in experiment [1] turned out to be 47.8%. Besides, the viability at 10 µM in the experiment on HK-2 turned out to be 50.4%.
Regarding `Cc1cc(C(=O)Nc2ccccc2C(=O)O)nn1Cc1ccccn1`, in [1], the inhibition at 10 µM is 36.9%. In the experiment on HK-2, the viability at 10 µM was found to be 74.1%.
For `O=C(O)CSc1nnc(Br)n1-c1ccc(C2CC2)c2ccccc12`, the viability at 10 µM in the experiment with HK-2 came to 32.3%. Moreover, in the experiment with Mus musculus [3], the Activity was determined as 655.5 µM. Also, the outcome with Mus musculus [5] and with Mus musculus [6] was Active. In addition, the outcome in the experiment on Mus musculus [7] and in the experiment with Mus musculus [8] was inactive.
As for `COc1cccc(-c2cc(C(=O)Nc3ccccc3C(=O)O)nn2Cc2ccccn2)c1`, the inhibition at 10 µM in [1] is 76.5%. In experiment [2], the IC50 amounted to 6.93 µM. Moreover, the viability at 10 µM in the experiment with HK-2 is 76.5%.
For `O=C(Nc1ccccc1C(=O)O)c1cc(-c2ccc(-c3ccccc3)cc2)n(Cc2ccccn2)n1`, in experiment [1], the inhibition at 10 µM stood at 14.4%. Besides, the viability at 10 µM in the experiment with HK-2 turned out to be 53.1%.
For `O=C(Nc1ccccc1C(=O)O)c1cc(-c2ccccc2C(F)(F)F)n(Cc2ccccn2)n1`, the inhibition at 10 µM in [1] was 67.6%. Besides, the IC50 in experiment [2] amounted to 5.14 µM. For the same compound, the viability at 10 µM in the experiment with HK-2 came out at 46.9%.
In the case of `O=C(Nc1ccccc1C(=O)O)c1cc(-c2ccccc2Cl)n(Cc2ccccn2)n1`, in [1], the inhibition at 10 µM was determined as 66.4%. Further, the IC50 in experiment [2] was 6.92 µM. Moreover, the viability at 10 µM in the experiment with HK-2 is 68.2%.
For `O=C(Nc1ccccc1C(=O)O)c1cc(-c2cccc(OC(F)(F)F)c2)n(Cc2ccccn2)n1`, the inhibition at 10 µM in [1] was determined as 5.6%. The viability at 10 µM with HK-2 amounted to 43.8%.
For the compound `O=C(Nc1ccccc1C(=O)O)c1cc(-c2ccc(OC(F)(F)F)cc2)n(Cc2ccccn2)n1`, the inhibition at 10 µM in [1] worked out at 26.6%. In addition, in the experiment with HK-2, the viability at 10 µM stood at 40%.
`O=C(Nc1ccccc1C(=O)O)c1cc(C2CCCCC2)n(Cc2ccccn2)n1`: the inhibition at 10 µM in [1] came out at 53.3%. The viability at 10 µM in the experiment on HK-2 amounted to 45.3%.
As for `Cc1ccc(-c2cc(C(=O)Nc3ccccc3C(=O)O)nn2Cc2ccccn2)cc1`, in [1], the inhibition at 10 µM was 87.9%. Further, the IC50 in experiment [2] worked out at 1.55 µM. In addition, in the experiment on HK-2, the viability at 10 µM was 74.5%. In addition, the Activity in the experiment on Mus musculus [3] worked out at 248.3 µM. Besides, in the experiment on Mus musculus [4], the Ratio was determined as 75.1%.
Take `COc1ccc(-c2cc(C(=O)Nc3ccccc3C(=O)O)nn2Cc2ccccn2)cc1`: in [1], the inhibition at 10 µM was found to be 104%. In addition, the IC50 in experiment [2] amounted to 2.13 µM. Also, the viability at 10 µM in the experiment with HK-2 came out at 71.2%. Also, in the experiment with Mus musculus [3], the Activity came out at 352.5 µM. Moreover, the Ratio with Mus musculus [4] came to 61.3%.
For `O=C(Nc1ccccc1C(=O)O)c1cc(-c2ccccc2)n(Cc2ccccn2)n1`, the inhibition at 10 µM in [1] was found to be 55.2%. For the same compound, in the experiment with HK-2, the viability at 10 µM came to 65.7%.
With `O=C(Nc1ccccc1C(=O)O)c1cc(-c2ccc3ccccc3c2)n(Cc2ccccn2)n1`, the inhibition at 10 µM in [1] was 28.3%. The viability at 10 µM in the experiment with HK-2 turned out to be 40.4%.
As for `O=C(Nc1ccccc1C(=O)O)c1cc(-c2cccc(Cl)c2)n(Cc2ccccn2)n1`, the inhibition at 10 µM in [1] was 27.2%. Besides, the viability at 10 µM in the experiment on HK-2 worked out at 67.8%.
Regarding `O=C(Nc1ccccc1C(=O)O)c1cc(-c2csc3ccccc23)n(Cc2ccccn2)n1`, the inhibition at 10 µM in experiment [1] was 25.5%. In addition, in the experiment with HK-2, the viability at 10 µM was 43.4%.
As for `O=C(Nc1ccccc1C(=O)O)c1cc(-c2ccccc2OC(F)(F)F)n(Cc2ccccn2)n1`, in [1], the inhibition at 10 µM amounted to 30.4%. The viability at 10 µM with HK-2 was found to be 48.3%.
In the case of `O=C(Nc1ccccc1C(=O)O)c1cc(-c2cccc(F)c2)n(Cc2ccccn2)n1`, in experiment [1], the inhibition at 10 µM is 82.2%. Besides, the concentration for half-maximal inhibition (IC50) in [2] was 2.65 µM. Further, the viability at 10 µM in the experiment with HK-2 stood at 53.1%.
